Key:
[1] = target: T1, biotinylated MBL (Mannan Binding Lectin) (Homo sapiens, UniProt P11226); test: ELLA (Enzyme Linked Lectin Assay), glucose inhibition of MBL binding to coated antigen, Examples C3/C5; details: glucose as inhibitor, 1.25 mM CaCl2, value only valid for this particular assay
Experimental: The wells were then washed (2 x 200 µl TBS).
Plates were then emptied and washed (3 x 200 µl TBS). […] The results are shown in the graphs in Fig. 1. High absorptions correspond to binding of MBL to the ligand. Baseline absorption corresponds to no binding of MBL to the ligand. […] Therefore, in an optimization step (Example C4) a range of mannose co-polymers having mannose monomer unit contents within the range of 30 % to 50 % were synthesized.
An ELLA assay was carried out as described in Example C3. […] From the inhibition curves, it is possible to calculate an IC50 value for aminodextran and the optimized ligand (Table 6). (The IC50 value is only valid for this particular assay.) TABLE 6

[2] = target: T1, biotinylated MBL (Mannan Binding Lectin); test: ELLA (Enzyme Linked Lectin Assay), glucose inhibition of MBL binding to coated antigen, Examples A8/A8a
Experimental: Biotinylated MBL was prepared as follows. Biotin-NHS (20 µl, 7 mg/ml in DMSO, -10-15 eq. per MBL monomer) was added to a solution of MBL (3 ml, 0.53 mg) in PBS (3 mL). The solution was gently stirred for 2 h, then transferred to a dialysis tube (MWCO 10-12K) and dialysed against TBS (2 × 1 L) over the course of 24 h. The resulting biotinylated MBL (0.2 mg/ml) in TBS was used without further purification.
The wells were then washed (2x200 µl PBS). ConA-HRP 1% (w/v)(100 µl) in PBS was added and incubated for 1 h. Plates were then emptied and washed (3x200 µl PBS). […] The wells were then washed (2x200 µl TBS). […] Plates were then emptied and washed (3x200 µl TBS).

T1 sequence (P11226 21-248): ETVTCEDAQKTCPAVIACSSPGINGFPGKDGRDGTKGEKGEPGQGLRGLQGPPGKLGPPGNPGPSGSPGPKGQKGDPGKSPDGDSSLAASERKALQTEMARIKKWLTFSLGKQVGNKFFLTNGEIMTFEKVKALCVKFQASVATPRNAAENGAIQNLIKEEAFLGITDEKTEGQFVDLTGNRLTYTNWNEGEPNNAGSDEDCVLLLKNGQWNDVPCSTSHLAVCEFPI

SMILES: OC[C@H]1OC(O)[C@H](O)[C@@H](O)[C@@H]1O (stereo partly drawn) [glucose]
- IC50 ([1]; coated antigen: 35 mol% Man Copolymer): 13 mM
- IC50 ([1]; coated antigen: Aminodextran): 23 mM
- IC50 ([2]; coated antigen: AmDex 150K (aminodextran), dilutions of glucose 100 mM to 0 mM, read-out: MBL affinity (IC50) or Abs(0 mM Glc)): 9.7 mM
- IC50 ([2]; coated antigen: Polymer of Example A4a, dilutions of glucose 100 mM to 0 mM, read-out: MBL affinity (IC50) or Abs (0 mM Glc)): 50 to 80 mM
- IC50 ([2]; glucose inhibiting MBL binding to plate coated with 40 mol% mannose polymer of Example A4 (Example A8), TBS, 1.25 mM CaCl2, pH 7.4, read-out: IC50): 16.8 mM
- IC50 ([2]; glucose inhibiting MBL binding to plate coated with 80 mol% mannose polymer of Example A4a, TBS, 1.25 mM CaCl2, pH 7.4, read-out: IC50): 50 to 80 mM

From patent EP1955072B1, “FLEXIBLE CARBOHYDRATE-BEARING POLYMER” (PreciSense A/S, priority 2005, dated 2007)
